From US20250049931A1, “POLYSARCOSINE-VITAMIN E DERIVATIVES” (POLYPEPTIDE THERAPEUTIC SOLUTIONS, S.L., priority 2021, published 2025)

Key:
[1] = Skin permeation studies by Franz diffusion cells; assay type: in vitro ADME, human; settings: TPGS-Dil and TPSS-Dil micelles 10 mg/mL, 8 h
Protocol: Breast skin samples were obtained from healthy women undergoing plastic surgery after written informed consent (kindly donated by Hospital la Fe, Valencia, Spain). Immediately after excision, the subcutaneous fatty tissue was carefully removed using a scalpel. The skin was cut into 4 cm^2 pieces, wrapped in aluminum foil and stored at −20° C. until use. To reduce inter-individual variability and afford a better comparison of results, skin from only one donor was used in all experiments. Before starting each experiment, the skin was allowed to equilibrate at room temperature (r.t.).
Permeation studies employed the modified Franz diffusion cells (Logan Instruments Corp., EE. UU) with a diffusional area of 0.95 cm^2. […]
Finally, the samples were placed in the optimum cutting temperature (OCT) inclusion medium, and slides of 5 μm were generated via cryostat (version CM1850 UV, Leica, Germany) and samples were analyzed by confocal microscopy.
Images were captured with an inverted DM IRE2 microscope equipped with a λ-blue 40× oil immersion objective and handled with a TCS SP2 system, equipped with an Acoustic Optical Beam Splitter (AOBS). […] Control tissue that follows the same incubation time with MilliQ water was also analyzed to establish the autofluorescence. Dil intensity was quantified five times per sample using Image J software.

HaCaT cells = assay: Cell viability by MTS assay, HaCaT; assay type: cell-based, human; settings: 72 h, 0.1 to 2.57 μg/mL equivalents of Vitamin E
human fibroblasts = assay: Cell viability by MTS assay, fibroblasts; assay type: cell-based; settings: 72 h, 0.1 to 2.57 μg/mL equivalents of Vitamin E

CCCCCCCCCCCCCCCCCCN1C(=CC=CC2=[N+](CCCCCCCCCCCCCCCCCC)c3ccccc3C2(C)C)C(C)(C)c2ccccc21.[O-][Cl+3]([O-])([O-])[O-] [Dil, 1,1′-dioctadecyl-3,3,3′,3′-tetramethylindocarbocyanine perchlorate]
Dil found in the receptor chamber [1]: any Dil was found in the receptor chamber

Cc1c(C)c2c(c(C)c1O)CC[C@@](C)(CCC[C@H](C)CCC[C@H](C)CCCC(C)C)O2 [Vitamin E, α-tocopherol]
cytotoxic effect (cell viability by MTS) (HaCaT cells): no cytotoxic effect | cytotoxic effect (cell viability by MTS) (human fibroblasts): no cytotoxic effect
